# Results as given in patent publication US10940139B2, “Compounds that interact with the Ras superfamily for the treatment of cancers, inflammatory diseases, rasopathies, and fibrotic disease” (Shy Therapeutics LLC, priority 2017, dated 2021).
# Tested on: MIA-PACA2 pancreatic cancer cell lines
# Test: Cell proliferation assay (CellTiter 96 AQueous One)
# Format: cell-based
# Details: Homo sapiens, MIA PaCa-2; MIA-PACA2, same assay as the % inhibition (standard conditions)
row,Compound,IC50 [nM]
1,COc1ccnc(-c2nc(O)c3c(Br)csc3n2)c1 [drawing 1637],100 to 500
2,CC1CN(c2ccccc2)CCN1C(=O)c1csc2c(O)nc(-c3ccccn3)nc12 (stereo not drawn) [drawing 1654],501 to 1000

# Same assay, conditions: Homo sapiens, MIA PaCa-2; at 30 μM, MIA-PACA2
row,Compound,inhibition at 30 µM [%]
1,O=C(c1csc2c(O)nc(-c3ccccn3)nc12)N1CCOC(c2cccc(F)c2)C1 (stereo not drawn) [drawing 1635],76 to 100
2,O=C(c1csc2c(O)nc(-c3ccccn3)nc12)N1CCOC(c2nccs2)C1 (stereo not drawn) [drawing 1636],76 to 100
3,COc1ccnc(-c2nc(O)c3c(Br)csc3n2)c1 [drawing 1637],76 to 100
4,O=C(NCCc1cccnc1)c1csc2nc(-c3ccccn3)nc(N3CCOCC3)c12 [drawing 1638],76 to 100
5,COc1ccc(CCNC(=O)c2csc3nc(-c4ccccn4)nc(N4CCOCC4)c23)cn1 [drawing 1639],51 to 75
6,COc1ccc(CCN(C)C(=O)c2csc3nc(-c4ccccn4)nc(N4CCOCC4)c23)cn1 [drawing 1640],76 to 100
7,COc1cc(CCNC(=O)c2csc3nc(-c4ccccn4)nc(N4CCOCC4)c23)ccn1 [drawing 1641],51 to 75
8,COc1ncc(CCNC(=O)c2csc3nc(-c4ccccn4)nc(N4CCOCC4)c23)cn1 [drawing 1642],76 to 100
9,O=C(NCCc1cncs1)c1csc2nc(-c3ccccn3)nc(N3CCOCC3)c12 [drawing 1643],76 to 100
10,N#Cc1ccc(CCNC(=O)c2csc3nc(-c4ccccn4)nc(N4CCOCC4)c23)cc1 [drawing 1644],25 to 50
11,CC(C)(C(=O)Nc1ccnc(-c2ccccn2)n1)c1ccc(C#N)cc1 [drawing 1645],76 to 100
12,CC(C)(C(=O)Nc1nc(-c2ccccn2)nc2sccc12)c1ccc(C#N)cc1 [drawing 1646],76 to 100
13,O=C(c1csc2c(O)nc(-c3ccccn3)nc12)N1CCN(c2cccc(F)c2)CC1 [drawing 1647],76 to 100
14,O=C(c1csc2c(O)nc(-c3ccccn3)nc12)N1CCN(c2ccc(F)cc2)CC1 [drawing 1648],76 to 100
15,N#Cc1cccc(N2CCN(C(=O)c3csc4c(O)nc(-c5ccccn5)nc34)CC2)c1 [drawing 1649],76 to 100
16,N#Cc1ccc(N2CCN(C(=O)c3csc4c(O)nc(-c5ccccn5)nc34)CC2)cc1 [drawing 1650],25 to 50
17,COc1cc(N2CCN(C(=O)c3csc4c(O)nc(-c5ccccn5)nc34)CC2)cc(OC)c1OC [drawing 1651],51 to 75
18,COc1ccc(N2CCN(C(=O)c3csc4c(O)nc(-c5ccccn5)nc34)CC2)c(OC)c1 [drawing 1652],76 to 100
19,O=C(c1csc2c(O)nc(-c3ccccn3)nc12)N1CCN(c2ccc(F)cc2F)CC1 [drawing 1653],76 to 100
20,CC1CN(c2ccccc2)CCN1C(=O)c1csc2c(O)nc(-c3ccccn3)nc12 (stereo not drawn) [drawing 1654],76 to 100
21,O=C(c1csc2c(O)nc(-c3ccccn3)nc12)N1CCN(Cc2ccccc2)CC1 [drawing 1655],76 to 100
22,COc1cccc(CN2CCN(C(=O)c3csc4c(O)nc(-c5ccccn5)nc34)CC2)c1 [drawing 1656],76 to 100
23,O=C(c1csc2c(O)nc(-c3ccccn3)nc12)N1CCN(Cc2ccc(O)cc2)CC1 [drawing 1657],1 to 25
24,O=C(c1csc2c(O)nc(-c3ccccn3)nc12)N1CCN(Cc2ccc(O)c(Cl)c2)CC1 [drawing 1658],76 to 100
25,O=C(c1csc2c(O)nc(-c3ccccn3)nc12)N1CCOC(c2ccccc2)C1 (stereo not drawn) [drawing 1659],76 to 100
26,COc1ccccc1C1CN(C(=O)c2csc3c(O)nc(-c4ccccn4)nc23)CCO1 (stereo not drawn) [drawing 1660],76 to 100
27,COc1ccc(C2CN(C(=O)c3csc4c(O)nc(-c5ccccn5)nc34)CCO2)cc1 (stereo not drawn) [drawing 1661],76 to 100

row,Compound,inhibition at 30 µM [%]
1,O=C(c1csc2c(O)nc(-c3ccccn3)nc12)N1CCOC(c2ccccc2Cl)C1 (stereo not drawn) [drawing 1662],76 to 100
2,O=C(c1csc2c(O)nc(-c3ccccn3)nc12)N1CCOC(c2cccc(Cl)c2)C1 (stereo not drawn) [drawing 1663],76 to 100
3,O=C(c1csc2c(O)nc(-c3ccccn3)nc12)N1CCOC(Cc2ccccc2)C1 (stereo not drawn) [drawing 1664],76 to 100
4,COc1ccccc1C1CN(C(=O)c2csc3c(O)nc(-c4ccccn4)nc23)CCN1 (stereo not drawn) [drawing 1665],76 to 100
5,COc1cccc(C2CN(C(=O)c3csc4c(O)nc(-c5ccccn5)nc34)CCN2)c1 (stereo not drawn) [drawing 1666],76 to 100
6,COc1ccc(C2CN(C(=O)c3csc4c(O)nc(-c5ccccn5)nc34)CCN2)cc1 (stereo not drawn) [drawing 1667],25 to 50
7,Cc1ccccc1C1CN(C(=O)c2csc3c(O)nc(-c4ccccn4)nc23)CCN1 (stereo not drawn) [drawing 1668],76 to 100
8,O=C(c1csc2c(O)nc(-c3ccccn3)nc12)N1CCNC(c2ccccc2F)C1 (stereo not drawn) [drawing 1669],76 to 100
9,Cn1cc(C2CN(C(=O)c3csc4c(O)nc(-c5ccccn5)nc34)CCN2)cn1 (stereo not drawn) [drawing 1670],1 to 25
10,O=C(c1csc2c(O)nc(-c3ccccn3)nc12)N1CCNC(Cc2ccccc2)C1 (stereo not drawn) [drawing 1671],76 to 100
11,O=C(NCCc1ccncc1)c1csc2nc(-c3ccccn3)nc(N3CCOCC3)c12 [drawing 1672],76 to 100
12,COc1ccncc1CCNC(=O)c1csc2nc(-c3ccccn3)nc(N3CCOCC3)c12 [drawing 1673],76 to 100
13,COc1cc(CCN(C)C(=O)c2csc3nc(-c4ccccn4)nc(N4CCOCC4)c23)ccn1 [drawing 1674],76 to 100
14,COc1ccnc(-c2nc(O)c3c(C#N)csc3n2)c1 [drawing 1675],76 to 100
15,O=C(NCCc1ccnc(O)c1)c1csc2nc(-c3ccccn3)nc(N3CCOCC3)c12 [drawing 1676],51 to 75
16,O=C(NCCc1cncnc1)c1csc2nc(-c3ccccn3)nc(N3CCOCC3)c12 [drawing 1677],76 to 100
17,O=C(NCCc1ccc(O)c(O)c1)c1csc2nc(-c3ccccn3)nc(N3CCOCC3)c12 [drawing 1678],76 to 100
18,O=C(NCCc1nnn[nH]1)c1csc2nc(-c3ccccn3)nc(N3CCOCC3)c12 [drawing 1679],51 to 75
19,N#Cc1cccc(CCNC(=O)c2csc3nc(-c4ccccn4)nc(N4CCOCC4)c23)c1 [drawing 1680],76 to 100
20,CN(CCc1cccc(C#N)c1)C(=O)c1csc2nc(-c3ccccn3)nc(N3CCOCC3)c12 [drawing 1681],76 to 100
21,COCCCCNC(=O)c1csc2nc(-c3ccccn3)nc(N3CCOCC3)c12 [drawing 1682],76 to 100
22,COCCCCN(C)C(=O)c1csc2nc(-c3ccccn3)nc(N3CCOCC3)c12 [drawing 1683],76 to 100
23,CNS(=O)(=O)CCCNC(=O)c1csc2nc(-c3ccccn3)nc(N3CCOCC3)c12 [drawing 1684],76 to 100
24,COCCN(CCOC)c1nc(-c2ccccn2)nc2scc(C(=O)NCCc3ccc(OC)nc3)c12 [drawing 1685],76 to 100
25,COCCCCNC(=O)c1csc2nc(-c3ccccn3)nc(N(CCOC)CCOC)c12 [drawing 1686],76 to 100
26,CC(C(=O)Nc1ccnc(-c2ccccn2)n1)c1ccc(C#N)cc1 (stereo not drawn) [drawing 1687],76 to 100
27,COc1ccc2c(c1)CCC2C(=O)Nc1ccnc(-c2ccccn2)n1 (stereo not drawn) [drawing 1688],76 to 100

row,Compound,inhibition at 30 µM [%]
1,N#Cc1ccc(COCC(=O)Nc2ccnc(-c3ccccn3)n2)cc1 [drawing 1689],76 to 100
2,Cc1cnc(-c2ccccn2)nc1NC(=O)C(C)c1ccc(C#N)cc1 (stereo not drawn) [drawing 1690],76 to 100
3,CC(C(=O)Nc1nc(-c2ccccn2)nc2sccc12)c1ccc(C#N)cc1 (stereo not drawn) [drawing 1691],76 to 100
4,N#Cc1ccc(COCC(=O)Nc2nc(-c3ccccn3)nc3sccc23)cc1 [drawing 1692],76 to 100
5,COc1ccnc(-c2nc(O)c3c(Cl)csc3n2)c1 [drawing 1693],76 to 100
6,COc1ccc(N2CCN(C(=O)c3csc4c(O)nc(-c5ccccn5)nc34)CC2)cc1O [drawing 1695],76 to 100
7,O=C(c1csc2c(O)nc(-c3ccccn3)nc12)N1CCN(c2ccc(O)c(Cl)c2)CC1 [drawing 1696],76 to 100
8,CC(c1ccccc1)N1CCN(C(=O)c2csc3c(O)nc(-c4ccccn4)nc23)CC1 (stereo not drawn) [drawing 1697],76 to 100
9,O=C(c1csc2c(O)nc(-c3ccccn3)nc12)N1CCOC(CN2CCOCC2)C1 (stereo not drawn) [drawing 1698],51 to 75
10,O=C(c1csc2c(O)nc(-c3ccccn3)nc12)N1CCNC(c2ccccc2Cl)C1 (stereo not drawn) [drawing 1699],76 to 100
11,O=C(c1csc2c(O)nc(-c3ccccn3)nc12)N1CCNC(c2ccc(F)cc2)C1 (stereo not drawn) [drawing 1700],76 to 100
12,O=C(c1csc2c(O)nc(-c3ccccn3)nc12)N1CCNC(c2ccc(O)cc2)C1 (stereo not drawn) [drawing 1701],76 to 100
13,COCCCCNC(=O)c1csc2nc(-c3ccccn3)nc(N3CCS(=O)(=O)CC3)c12 [drawing 1702],1 to 25
14,Cc1cnc(-c2ccccn2)nc1NC(=O)C1CCCc2cc(C#N)ccc21 (stereo not drawn) [drawing 1703],76 to 100
15,O=C(COCc1ccncc1)Nc1nc(-c2ccccn2)nc2sccc12 [drawing 1704],76 to 100
16,O=C(COCc1cccnc1)Nc1nc(-c2ccccn2)nc2sccc12 [drawing 1705],76 to 100
17,COc1cccc(CC2CN(C(=O)c3csc4c(O)nc(-c5ccccn5)nc34)CCN2)c1 (stereo not drawn) [drawing 1706],1 to 25
18,O=C(c1csc2c(O)nc(-c3ccccn3)nc12)N1CCNC(Cc2ccc(F)cc2)C1 (stereo not drawn) [drawing 1707],51 to 75
19,O=C(c1csc2c(O)nc(-c3ccccn3)nc12)N1CCNC(Cc2cccc(F)c2)C1 (stereo not drawn) [drawing 1708],25 to 50
20,COc1ccnc(-c2nc(O)c3c(C(F)(F)F)csc3n2)c1 [drawing 1709],76 to 100
21,Nc1nc(-c2ccccn2)nc2ccsc12 [drawing 1710],1 to 25
22,Nc1nc(-c2ccccn2)nc2c(-c3ccccc3Cl)csc12 [drawing 1711],76 to 100
23,Cc1cc2nc(-c3ccccn3)nc(N)c2s1 [drawing 1712],76 to 100
24,Cc1sc2c(N)nc(-c3ccccn3)nc2c1-c1ccccc1 [drawing 1713],76 to 100
25,O=C(c1csc2c(O)nc(-c3ccccn3)nc12)N1CC2CC1CN2c1ccccc1 (stereo not drawn) [drawing 1714],76 to 100
